{"source": "PubChem BioAssay (NCI)", "test_in_all_cases": "NCI-60 cell line screen, 48 h", "key": {"A549 NSCLC": {"system": "A549 NSCLC"}, "ACHN renal": {"system": "ACHN renal"}, "CAKI-1 renal": {"system": "CAKI-1 renal"}, "CCRF-CEM leukemia": {"system": "CCRF-CEM leukemia"}, "COLO 205 colon": {"system": "COLO 205 colon"}, "DLD-1 colon": {"system": "DLD-1 colon"}, "DMS 273 small cell lung": {"system": "DMS 273 small cell lung"}, "EKVX NSCLC": {"system": "EKVX NSCLC"}, "HCC-2998 colon": {"system": "HCC-2998 colon"}, "HCT-116 colon": {"system": "HCT-116 colon"}, "HCT-15 colon": {"system": "HCT-15 colon"}, "HL-60(TB) leukemia": {"system": "HL-60(TB) leukemia"}, "HOP-18 NSCLC": {"system": "HOP-18 NSCLC"}, "HOP-62 NSCLC": {"system": "HOP-62 NSCLC"}, "HT29 colon": {"system": "HT29 colon"}, "IGROV1 ovarian": {"system": "IGROV1 ovarian"}, "K-562 leukemia": {"system": "K-562 leukemia"}, "KM20L2 colon": {"system": "KM20L2 colon"}, "LOX IMVI melanoma": {"system": "LOX IMVI melanoma"}, "LXFL 529 NSCLC": {"system": "LXFL 529 NSCLC"}, "M14 melanoma": {"system": "M14 melanoma"}, "M19-MEL melanoma": {"system": "M19-MEL melanoma"}, "MALME-3M melanoma": {"system": "MALME-3M melanoma"}, "MOLT-4 leukemia": {"system": "MOLT-4 leukemia"}, "NCI-H226 lung": {"system": "NCI-H226 lung"}, "NCI-H23 lung": {"system": "NCI-H23 lung"}, "NCI-H460 lung": {"system": "NCI-H460 lung"}, "NCI-H522 lung": {"system": "NCI-H522 lung"}, "OVCAR-3 ovarian": {"system": "OVCAR-3 ovarian"}, "OVCAR-4 ovarian": {"system": "OVCAR-4 ovarian"}, "OVCAR-5 ovarian": {"system": "OVCAR-5 ovarian"}, "OVCAR-8 ovarian": {"system": "OVCAR-8 ovarian"}, "RPMI-8226 leukemia": {"system": "RPMI-8226 leukemia"}, "RXF 393 renal": {"system": "RXF 393 renal"}, "RXF-631 renal": {"system": "RXF-631 renal"}, "SF-268 CNS": {"system": "SF-268 CNS"}, "SF-295 CNS": {"system": "SF-295 CNS"}, "SF-539 CNS": {"system": "SF-539 CNS"}, "SK-MEL-2 melanoma": {"system": "SK-MEL-2 melanoma"}, "SK-MEL-5 melanoma": {"system": "SK-MEL-5 melanoma"}, "SK-OV-3 ovarian": {"system": "SK-OV-3 ovarian"}, "SN12C renal": {"system": "SN12C renal"}, "SNB-19 CNS": {"system": "SNB-19 CNS"}, "SNB-75 CNS": {"system": "SNB-75 CNS"}, "SNB-78 CNS": {"system": "SNB-78 CNS"}, "SR leukemia": {"system": "SR leukemia"}, "SW-620 colon": {"system": "SW-620 colon"}, "TK-10 renal": {"system": "TK-10 renal"}, "U251 CNS": {"system": "U251 CNS"}, "UACC-257 melanoma": {"system": "UACC-257 melanoma"}, "UACC-62 melanoma": {"system": "UACC-62 melanoma"}, "UO-31 renal": {"system": "UO-31 renal"}, "XF 498 CNS": {"system": "XF 498 CNS"}}, "note": "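Five concentrations, 48 hours, 96-well plates. TGI: concentration producing complete growth inhibition.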", "data": [{"compound": "COc1ccc2c(c1)O[C@H]1c3ccc(O)cc3OC[C@@H]21", "values": [{"measurement": "TGI", "setting": "A549 NSCLC", "value": "> 100", "unit": "µM"}, {"measurement": "TGI", "setting": "ACHN renal", "value": 81.4, "unit": "µM"}, {"measurement": "TGI", "setting": "CAKI-1 renal", "value": "> 100", "unit": "µM"}, {"measurement": "TGI", "setting": "CCRF-CEM leukemia", "value": 65.8, "unit": "µM"}, {"measurement": "TGI", "setting": "COLO 205 colon", "value": 57, "unit": "µM"}, {"measurement": "TGI", "setting": "DLD-1 colon", "value": "> 100", "unit": "µM"}, {"measurement": "TGI", "setting": "DMS 273 small cell lung", "value": "> 100", "unit": "µM"}, {"measurement": "TGI", "setting": "EKVX NSCLC", "value": "> 100", "unit": "µM"}, {"measurement": "TGI", "setting": "HCC-2998 colon", "value": 53, "unit": "µM"}, {"measurement": "TGI", "setting": "HCT-116 colon", "value": "> 100", "unit": "µM"}, {"measurement": "TGI", "setting": "HCT-15 colon", "value": "> 100", "unit": "µM"}, {"measurement": "TGI", "setting": "HL-60(TB) leukemia", "value": 49.8, "unit": "µM"}, {"measurement": "TGI", "setting": "HOP-18 NSCLC", "value": "> 100", "unit": "µM"}, {"measurement": "TGI", "setting": "HOP-62 NSCLC", "value": "> 100", "unit": "µM"}, {"measurement": "TGI", "setting": "HT29 colon", "value": "> 100", "unit": "µM"}, {"measurement": "TGI", "setting": "IGROV1 ovarian", "value": 71.6, "unit": "µM"}, {"measurement": "TGI", "setting": "K-562 leukemia", "value": "> 100", "unit": "µM"}, {"measurement": "TGI", "setting": "KM20L2 colon", "value": "> 100", "unit": "µM"}, {"measurement": "TGI", "setting": "LOX IMVI melanoma", "value": 32.2, "unit": "µM"}, {"measurement": "TGI", "setting": "LXFL 529 NSCLC", "value": 80.3, "unit": "µM"}, {"measurement": "TGI", "setting": "M14 melanoma", "value": 47.7, "unit": "µM"}, {"measurement": "TGI", "setting": "M19-MEL melanoma", "value": 46, "unit": "µM"}, {"measurement": "TGI", "setting": "MALME-3M melanoma", "value": "> 100", "unit": "µM"}, {"measurement": "TGI", "setting": "MOLT-4 leukemia", "value": 55.2, "unit": "µM"}, {"measurement": "TGI", "setting": "NCI-H226 lung", "value": 59.3, "unit": "µM"}, {"measurement": "TGI", "setting": "NCI-H23 lung", "value": 86.5, "unit": "µM"}, {"measurement": "TGI", "setting": "NCI-H460 lung", "value": "> 100", "unit": "µM"}, {"measurement": "TGI", "setting": "NCI-H522 lung", "value": 79.4, "unit": "µM"}, {"measurement": "TGI", "setting": "OVCAR-3 ovarian", "value": "> 100", "unit": "µM"}, {"measurement": "TGI", "setting": "OVCAR-4 ovarian", "value": "> 100", "unit": "µM"}, {"measurement": "TGI", "setting": "OVCAR-5 ovarian", "value": "> 100", "unit": "µM"}, {"measurement": "TGI", "setting": "OVCAR-8 ovarian", "value": "> 100", "unit": "µM"}, {"measurement": "TGI", "setting": "RPMI-8226 leukemia", "value": 89, "unit": "µM"}, {"measurement": "TGI", "setting": "RXF 393 renal", "value": 54.9, "unit": "µM"}, {"measurement": "TGI", "setting": "RXF-631 renal", "value": "> 100", "unit": "µM"}, {"measurement": "TGI", "setting": "SF-268 CNS", "value": "> 100", "unit": "µM"}, {"measurement": "TGI", "setting": "SF-295 CNS", "value": "> 100", "unit": "µM"}, {"measurement": "TGI", "setting": "SF-539 CNS", "value": 49.9, "unit": "µM"}, {"measurement": "TGI", "setting": "SK-MEL-2 melanoma", "value": 72.7, "unit": "µM"}, {"measurement": "TGI", "setting": "SK-MEL-5 melanoma", "value": 32, "unit": "µM"}, {"measurement": "TGI", "setting": "SK-OV-3 ovarian", "value": 98.9, "unit": "µM"}, {"measurement": "TGI", "setting": "SN12C renal", "value": "> 100", "unit": "µM"}, {"measurement": "TGI", "setting": "SNB-19 CNS", "value": "> 100", "unit": "µM"}, {"measurement": "TGI", "setting": "SNB-75 CNS", "value": 47.1, "unit": "µM"}, {"measurement": "TGI", "setting": "SNB-78 CNS", "value": "> 100", "unit": "µM"}, {"measurement": "TGI", "setting": "SR leukemia", "value": 43.7, "unit": "µM"}, {"measurement": "TGI", "setting": "SW-620 colon", "value": "> 100", "unit": "µM"}, {"measurement": "TGI", "setting": "TK-10 renal", "value": "> 100", "unit": "µM"}, {"measurement": "TGI", "setting": "U251 CNS", "value": "> 100", "unit": "µM"}, {"measurement": "TGI", "setting": "UACC-257 melanoma", "value": 52.5, "unit": "µM"}, {"measurement": "TGI", "setting": "UACC-62 melanoma", "value": 29.3, "unit": "µM"}, {"measurement": "TGI", "setting": "UO-31 renal", "value": 72.6, "unit": "µM"}, {"measurement": "TGI", "setting": "XF 498 CNS", "value": 46.4, "unit": "µM"}]}]}
